Values quoted from earlier work as cited in patent US9418186B2, “Assessment of solute partitioning in crude oils” (EXXONMOBIL RESEARCH AND ENGINEERING COMPANY, priority 2012, dated 2016).
Several values for one entry are separate records, joined by “and”; a condition that tells them apart may be missing. Equal values may be shown once. Read-outs that look alike come from different tables or passages of the source.

Experiments:
[1] = North Sea crude oil / water
[2] = Miller (North Sea) crude oil / water
[3] = chloroform / water
[4] = not given; remark: listed apart in the source

solubility in water [4] [gmol/m^3]	Structure (SMILES)	literature value for the partition coefficient in octanol-water	log K in octanol-water (literature)	experimental partition coefficient [1]	experimental value for the log of the partition coefficient [1]	experimental partition coefficient [2]	experimental value for the log of the partition coefficient [2]	experimental partition coefficient [3]	experimental value for the log of the partition coefficient [3]
–	S [H2S]	27.5	1.44	4.09	0.612	–	–	–	–
–	Oc1ccccc1 [phenol]	28.8	1.45	–	–	1.72	0.238 and 0.24	0.74	−0.13
40353	O=C1CCCCCN1 [caprolactam]	–	–	–	–	–	–	0.74	−0.131
